Reference: patent US10821115B2, “Compounds that inhibit Mcl-1 protein” (priority 2017, dated 2020)
Like-named read-outs stand apart in the source and are kept apart here.

How the values were obtained:
[1] = biological target: recombinant human Mcl-1 (residues 171-327) / Bim interaction (Homo sapiens (Human), UniProt Q07820); test: biochemical; type: binding; details: read-out: Mcl-1 HTRF IC50
[2] = test system: human multiple myeloma cell line, OPM-2; test: Cell viability assay (OPM-2 10 FBS), CellTiter-Glo; type: cell-based
How it was run: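 Cells were seeded at 3000 cells/well in RPMI 1640 with 10% FBS and exposed to serially diluted compounds for 16 h at 37 °C, 5% CO2.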

[3] = TR-FRET, Mcl-1(171-327) / biotin-Bim (51-76)
[4] = read-out: OPM-2 10% FBS IC50 IP, OPM-2 cells, 10% FBS, 16 h, CellTiter-Glo
[5] = Homo sapiens, OPM-2, 16 h, read-out: OPM-2 10% FBS IC50 IP, OPM-2 cells, 10% FBS, 16 h, CellTiter-Glo
[6] = 0.1 nM Mcl-1(171-327), 0.05 nM biotin-Bim (51-76)
[7] = Homo sapiens, OPM-2, 16 h, read-out: OPM-2 10% FBS IC50 IP, OPM-2 cells, 10% FBS, 16 h incubation

Sequence of recombinant human Mcl-1 (residues 171-327) / Bim interaction (Q07820 171-327): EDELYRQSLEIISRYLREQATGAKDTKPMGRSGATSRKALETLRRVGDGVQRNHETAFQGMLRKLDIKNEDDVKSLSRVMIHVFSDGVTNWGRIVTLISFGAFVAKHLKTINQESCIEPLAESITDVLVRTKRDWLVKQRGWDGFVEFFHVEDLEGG

Compound	IC50 [1, 3]	IC50 [2, 5]	also measured
COCCN(C)S(=O)(=O)C[C@]1(O)CCC[C@H](C)[C@@H](C)S(=O)(=O)NC(=O)c2ccc3c(c2)N(C[C@@H]2CC[C@H]21)C[C@@]1(CCCc2cc(Cl)ccc21)CO3 [Example 100166, 1-((1S,3′R,6′R,7′S,11′S,12′R)-6-chloro-7′-hydroxy-11′,12′-dimethyl-13′,13′-dioxido-15′-oxo-3,4-dihydro-2H-spiro[naphthalene-1,22′-[20]oxa[13]thia[1,14]diazatetracyclo [14.7.2.0~3,6~.0~19,24~]pentacosa[16,18,24]trien]-7′-yl)-N-(2-methoxyethyl)-N-methylmethanesulfonamide]	1.77 nM	–	IC50 [2, 4]: 945 nM
CC#C[C@]1(O)/C=C/C[C@H](C)[C@@H](C)S(=O)(=O)NC(=O)c2ccc3c(c2)N(C[C@@H]2CC[C@H]21)C[C@@]1(CCCc2cc(Cl)ccc21)CO3 [Example 100499, (1S,3′R,6′R,7′S,8′E,11′S,12′R)-6-chloro-7′-hydroxy-11′,12′-dimethyl-7′-(1-propyn-1-yl)-3,4-dihydro-2H,15′H-spiro[naphthalene-1,22′-[20]oxa[13]thia[1,14]diazatetracyclo [14.7.2.0~3,6~.0~19,24~]pentacosa[8,16,18,24]tetraen]-15′-one 13′,13′-dioxide]	–	1120 nM	IC50 [1]: 0.509 nM
C[C@@H]1[C@@H](C)C/C=C/[C@@](O)(c2ccncc2F)[C@@H]2CC[C@H]2CN2C[C@@]3(CCCc4cc(Cl)ccc43)COc3ccc(cc32)C(=O)NS1(=O)=O (single isomer, unassigned) [Example 100370]	0.153 nM	258 nM	–
CO[C@@]1(C)/C=C/C[C@H](C)[C@@H](CCO)S(=O)(=O)NC(=O)c2ccc3c(c2)N(C[C@@H]2CC[C@H]21)C[C@@]1(CCCc2cc(Cl)ccc21)CO3 (single isomer, unassigned) [Example 100593]	0.464 nM	215 nM	–
C[C@@H]1[C@@H](C)C/C=C/[C@](O)(CC(=O)OCC2(C)COC2)[C@@H]2CC[C@H]2CN2C[C@@]3(CCCc4cc(Cl)ccc43)COc3ccc(cc32)C(=O)NS1(=O)=O [Example 100298, (3-methyl-3-oxetanyl)methyl ((1S,3′R,6′R,7′R,8′E,11′S,12′R)-6-chloro-7′-hydroxy-11′,12′-dimethyl-13′,13′-dioxido-15′-oxo-3,4-dihydro-2H-spiro[naphthalene-1,22′-[20]oxa[13]thia[1,14]diazatetracyclo [14.7.2.0~3,6~.0~19,24~]pentacosa[8,16,18,24]tetraen]-7′-yl)acetate]	0.14 nM	199 nM	–
CO[C@]1(CN2C[C@@H](C)N(C(C)C)[C@@H](C)C2)/C=C/C[C@H](C)[C@@H](C)S(=O)(=O)NC(=O)c2ccc3c(c2)N(C[C@@H]2CC[C@H]21)C[C@@]1(CCCc2cc(Cl)ccc21)CO3 [Example 328, (1S,3′R,6′R,7′R,8′E,11′S,12′R)-6-chloro-7′-(((3R,5S)-3,5-dimethyl-4-(1-methylethyl)-1-piperazinyl)methyl)-7′-methoxy-11′,12′-dimethyl-3,4-dihydro-2H,15′H-spiro[naphthalene-1,22′-[20]oxa[13]thia[1,14]diazatetracyclo [14.7.2.0~3,6~.0~19,24~]pentacosa[8,16,18,24]tetraen]-15′-one 13′,13′-dioxide]	–	–	IC50 [1, 6]: 0.087 nM; IC50 [2, 7]: 48 nM
C[C@@H]1[C@@H](C)CCC[C@@](O)(Cc2nccs2)[C@@H]2CC[C@H]2CN2C[C@@]3(CCCc4cc(Cl)ccc43)COc3ccc(cc32)C(=O)NS1(=O)=O (single isomer, unassigned) [Example 100250]	0.136 nM	–	IC50 [2, 4]: 82 nM
CCN1CCN(C[C@@]2(OC)/C=C/C[C@H](C)[C@@H](C)S(=O)(=O)NC(=O)c3ccc4c(c3)N(C[C@@H]3CC[C@H]32)C[C@@]2(CCCc3cc(Cl)ccc32)CO4)CC1 [Example 88, (1S,3′R,6′R,7′R,8′E,11′S,12′R)-6-chloro-7′-((4-ethyl-1-piperazinyl)methyl)-7′-methoxy-11′,12′-dimethyl-3,4-dihydro-2H,15′H-spiro[naphthalene-1,22′-[20]oxa[13]thia[1,14]diazatetracyclo [14.7.2.0~3,6~.0~19,24~]pentacosa[8,16,18,24]tetraen]-15′-one 13′,13′-dioxide]	–	–	IC50 [1, 6]: 0.139 nM; IC50 [2, 7]: 74 nM
CO[C@@]1(CS(C)(=O)=O)/C=C/C[C@H](C)[C@@H](C)S(=O)(=O)NC(=O)c2ccc3c(c2)N(C[C@@H]2CC[C@H]21)C[C@@]1(CCCc2cc(Cl)ccc21)CO3 [Example 100459, (1S,3′R,6′R,7′S,8′E,11′S,12′R)-6-chloro-7′-methoxy-11′,12′-dimethyl-7′-((methylsulfonyl)methyl)-3,4-dihydro-2H,15′H-spiro[naphthalene-1,22′-[20]oxa[13]thia[1,14]diazatetracyclo [14.7.2.0~3,6~.0~19,24~]pentacosa[8,16,18,24]tetraen]-15′-one 13′,13′-dioxide]	0.685 nM	732 nM	–
CN[C@@H]1C[C@H](C)[C@@H](C)S(=O)(=O)NC(=O)c2ccc3c(c2)N(C[C@@H]2CC[C@H]2[C@@](C)(O)C1)C[C@@]1(CCCc2cc(Cl)ccc21)CO3 [Example 100065, (1S,3′R,6′R,7′S,9′R,11′S,12′R)-6-chloro-7′-hydroxy-7′,11′,12′-trimethyl-9′-(methylamino)-3,4-dihydro-2H,15′H-spiro[naphthalene-1,22′-[20]oxa[13]thia[1,14]diazatetracyclo [14.7.2.0~3,6~.0~19,24~]pentacosa[16,18,24]trien]-15′-one 13′,13′-dioxide]	4.85 nM	–	IC50 [2, 4]: 7390 nM
Cc1ccc([C@]2(O)/C=C/C[C@H](C)[C@@H](C)S(=O)(=O)NC(=O)c3ccc4c(c3)N(C[C@@H]3CC[C@H]32)C[C@@]2(CCCc3cc(Cl)ccc32)CO4)nc1 (single isomer, unassigned) [Example 100439]	0.619 nM	2640 nM	–
Cc1ccnc(C[C@]2(O)/C=C/C[C@H](C)[C@@H](C)S(=O)(=O)NC(=O)c3ccc4c(c3)N(C[C@@H]3CC[C@H]32)C[C@@]2(CCCc3cc(Cl)ccc32)CO4)c1 [Example 100533, (1S,3′R,6′R,7′S,8′E,11′S,12′R)-6-chloro-7′-hydroxy-11′,12′-dimethyl-7′-((4-methyl-2-pyridinyl)methyl)-3,4-dihydro-2H,15′H-spiro[naphthalene-1,22′-[20]oxa[13]thia[1,14]diazatetracyclo [14.7.2.0~3,6~.0~19,24~]pentacosa[8,16,18,24]tetraen]-15′-one 13′,13′-dioxide]	8.56 nM	3990 nM	–
CO[C@]1(CN2CCN(CC(C)(C)C)CC2)/C=C/C[C@H](C)[C@@H](C)S(=O)(=O)NC(=O)c2ccc3c(c2)N(C[C@@H]2CC[C@H]21)C[C@@]1(CCCc2cc(Cl)ccc21)CO3 [Example 153, (1S,3′R,6′R,7′R,8′E,11′S,12′R)-6-chloro-7′-((4-(2,2-dimethylpropyl)-1-piperazinyl)methyl)-7′-methoxy-11′,12′-dimethyl-3,4-dihydro-2H,15′H-spiro[naphthalene-1,22′-[20]oxa[13]thia[1,14]diazatetracyclo [14.7.2.0~3,6~.0~19,24~]pentacosa[8,16,18,24]tetraen]-15′-one 13′,13′-dioxide]	–	–	IC50 [1, 6]: 0.96 nM; IC50 [2, 7]: 10800 nM
(1S,3′R,6′R,7′S,8′E,11′S,12′R)-6-chloro-7′-(2-methoxyethoxy)-11′,12′-dimethyl-7′-((9aR)-octahydro-2H-pyrido[1,2-a]pyrazin-2-ylmethyl)-3,4-dihydro-2H, 15′H-spiro[naphthalene-1,22′-[20]oxa[13]thia[1,14]diazatetracyclo[14.7.2.0-3,6˜.0˜19,24˜]pentacosa[8,16,18,24]tetraen]-15′-one 13′,13′-dioxide [Example 151]	–	–	IC50 [1, 6]: 0.843 nM; IC50 ([2]; read-out: OPM-2 10% FBS IC50 IP, OPM-2 cells, 10% FBS, 16 h incubation): 462 nM
C[C@@H]1[C@@H](C)C/C=C/[C@@](O)(C[S@@+](C)[O-])[C@@H]2CC[C@H]2CN2C[C@@]3(CCCc4cc(Cl)ccc43)COc3ccc(cc32)C(=O)NS1(=O)=O (stereo in doubt) [Example 100074]	0.731 nM	3020 nM	–
CO[C@@]1(C[C@@H](C)O)/C=C/C[C@H](C)[C@@H](C)S(=O)(=O)NC(=O)c2ccc3c(c2)N(C[C@@H]2CC[C@H]21)C[C@@]1(CCCc2cc(Cl)ccc21)CO3 [Example 100436, (1S,3′R,6′R,7′S,8′E,11′S,12′R)-6-chloro-7′-((2R)-2-hydroxypropyl)-7′-methoxy-11′,12′-dimethyl-3,4-dihydro-2H,15′H-spiro[naphthalene-1,22′-[20]oxa[13]thia[1,14]diazatetracyclo [14.7.2.0~3,6~.0~19,24~]pentacosa[8,16,18,24]tetraen]-15′-one 13′,13′-dioxide]	0.076 nM	–	IC50 [2, 4]: 335 nM
CO[C@]1(CN2C[C@@H]3C[C@H]2CN3C(C)C)/C=C/C[C@H](C)[C@@H](C)S(=O)(=O)NC(=O)c2ccc3c(c2)N(C[C@@H]2CC[C@H]21)C[C@@]1(CCCc2cc(Cl)ccc21)CO3 [Example 315, (1S,3′R,6′R,7′R,8′E,11′S,12′R)-6-chloro-7′-methoxy-11′,12′-dimethyl-7′-(((1S,4S)-5-(1-methylethyl)-2,5-diazabicyclo[2.2.1]hept-2-yl)methyl)-3,4-dihydro-2H,15′H-spiro[naphthalene-1,22′-[20]oxa[13]thia[1,14]diazatetracyclo [14.7.2.0~3,6~.0~19,24~]pentacosa[8,16,18,24]tetraen]-15′-one 13′,13′-dioxide]	–	–	IC50 [1, 6]: 0.122 nM; IC50 [2, 7]: 124 nM
